Test [1] deals with T1, DNA-dependent protein kinase (DNA-PK) (Homo sapiens, UniProt P78527).
T1 construct: endogenous in cells; host or cells: Jurkat, clone E6-1 (ATCC TIB-152) cell lysate
Description: kinobeads assay, DNA-PK. It counts as binding. As for the experimental part: (§1) The compounds of the present invention as described were tested in the mTOR kinobeads assay as described below. Briefly, test compounds (at various concentrations) and the affinity matrix with the immobilized phenylmorpholin-chromen ligand (8-(4-aminomethyl-phenyl)-2-morpholin-4-yl-chromen-4-one) were added to cell lysate aliquots and allowed to bind to the proteins in the lysate sample. After the incubation time the beads with captured proteins were separated from the lysate. Bound proteins were then eluted and the presence of mTOR, PI3K delta (PI3 Kd) and DNA-dependent protein kinase (DNA-PK) was detected and quantified using a specific antibody in a dot blot procedure and the Odyssey infrared detection system. Kinobeads assays for PI3K (WO-A 2008/015013) and for kinase selectivity profiling (WO 2006/134056) have been previously described.
(§2) The kinobeads assay was performed as a competitive binding assay in which test compounds were added directly into a cell lysate. Test compounds (at various concentrations) and the affinity matrix (beads with immobilized phenylmorpholin-chromen ligand) were added to cell lysate aliquots and allowed to bind to the proteins contained in the lysate sample. After the incubation time the beads with captured proteins were separated from the lysate. Bound proteins were then eluted and the presence of kinases was detected and quantified using a multiplexed immunodetection format. Dose response curves for individual kinases were generated and IC50 values calculated.
(§3) The affinity matrix (beads with immobilized phenylmorpholin-chromen ligand) was washed two times with 15 ml of 1×DP buffer containing 0.2% NP40 (IGEPAL® CA-630, Sigma, #13021) and then resupended in 5.5 ml of 1×DP buffer containing 0.2% NP40 (10% beads slurry).
(§4) 5×DP buffer: 250 mM Tris-HCl pH 7.4, 25% Glycerol, 7.5 mM MgCl2, 750 mM NaCl, 5 mM Na3VO4, filter the 5×-lysis buffer through 0.22 μm filter and store in aliquots at −80° C. The 5×DP buffer is diluted to 1×DP buffer containing 1 mM DTT and 25 mM NaF.
(§5) Stock solutions of test compounds were prepared in DMSO. In a 96 well plate 30 μl solution of diluted test compounds at 5 mM in DMSO were prepared. Starting with this solution a 1:3 dilution series (9 steps) was prepared. For control experiments (no test compound) a buffer containing 2% DMSO was used. Compound CZC00018052 served as a positive control (PI-103; Calbiochem catalogue number 528100).
(§6) Jurkat cells (ATCC catalogue number TIB-152 Jurkat, clone E6-1) were grown in 1 liter Spinner flasks (Integra Biosciences, #182101) in suspension in RPMI 1640 medium (Invitrogen, #21875-034) supplemented with 10% Fetal Bovine Serum (Invitrogen) at a density between 0.15×10^6 and 1.2×10^6 cells/ml. Cells were harvested by centrifugation, washed once with 1×PBS buffer (Invitrogen, #14190-094) and cell pellets were frozen in liquid nitrogen and subsequently stored at −80° C.
(§7) Jurkat cells were homogenized in a Potter S homogenizer in lysis buffer: 50 mM Tris-HCl, 0.8% NP40, 5% glycerol, 150 mM NaCl, 1.5 mM MgCl2, 25 mM NaF, 1 mM sodium vanadate, 1 mM DTT, pH 7.5. One complete EDTA-free tablet (protease inhibitor cocktail, Roche Diagnostics, 1873580) per 25 ml buffer was added. The material was dounced 10 times using a mechanized POTTER S, transferred to 50 ml falcon tubes, incubated for 30 minutes on ice and spun down for 10 min at 20,000 g at 4° C. (10,000 rpm in Sorvall SLA600, precooled). The supernatant was transferred to an ultracentrifuge (UZ)-polycarbonate tube (Beckmann, 355654) and spun for 1 hour at 100.000 g at 4° C. (33.500 rpm in Ti50.2, precooled). The supernatant was transferred again to a fresh 50 ml falcon tube, the protein concentration was determined by a Bradford assay (BioRad) and samples containing 50 mg of protein per aliquot were prepared. The samples were immediately used for experiments or frozen in liquid nitrogen and stored frozen at −80° C. […]

For another test, the target named is T2, mTOR (Homo sapiens, UniProt P42345).
T2 construct: endogenous in cells; host or cells: Jurkat, clone E6-1 (ATCC TIB-152) cell lysate
Briefly: mTOR kinobeads assay (competitive binding in Jurkat cell lysate, immunodetection). The protocol:
The compounds of the present invention as described were tested in the mTOR kinobeads assay as described below. […] After the incubation time the beads with captured proteins were separated from the lysate. Bound proteins were then eluted and the presence of mTOR, PI3K delta (PI3 Kd) and DNA-dependent protein kinase (DNA-PK) was detected and quantified using a specific antibody in a dot blot procedure and the Odyssey infrared detection system.
as §2, §4
Stock solutions of test compounds were prepared in DMSO. In a 96 well plate 30 μl solution of diluted test compounds at 5 mM in DMSO were prepared. Starting with this solution a 1:3 dilution series (9 steps) was prepared. For control experiments (no test compound) a buffer containing 2% DMSO was used.
Jurkat cells were homogenized in a Potter S homogenizer in lysis buffer: 50 mM Tris-HCl, 0.8% NP40, 5% glycerol, 150 mM NaCl, 1.5 mM MgCl2, 25 mM NaF, 1 mM sodium vanadate, 1 mM DTT, pH 7.5. […] The material was dounced 10 times using a mechanized POTTER S, transferred to 50 ml falcon tubes, incubated for 30 minutes on ice and spun down for 10 min at 20,000 g at 4° C. (10,000 rpm in Sorvall SLA600, precooled). […] (33.500 rpm in Ti50.2, precooled). The supernatant was transferred again to a fresh 50 ml falcon tube, the protein concentration was determined by a Bradford assay (BioRad) and samples containing 50 mg of protein per aliquot were prepared. The samples were immediately used for experiments or frozen in liquid nitrogen and stored frozen at −80° C.
Jurkat cell lysate (approximately 50 mg protein per plate) was thawed in a water bath at room temperature and then kept on ice. […] The diluted cell lysate was stored on ice.
Plates were sealed and incubated for two hours in a cold room on a Thermoxer with shaking (750 rpm). Afterwards the plate was washed twice with 230 μl washing buffer (1×DP 0.4% NP40). […] The eluate was frozen quickly at −80° C. and stored at −20° C.
The kinases in the eluates were detected and quantified by spotting on Nitrocellulose membranes and using a first antibody directed against the kinase of interest and a fluorescently labeled secondary antibody (anti-mouse or anti-rabbit IRDye™ antibodies from Rockland).
Afterwards the membrane was washed three times for 10 minutes with PBS buffer containing 0.1% Tween 20 at room temperature. […] Afterwards the membrane was washed three times for 10 minutes each with 1×PBS buffer containing 0.1% Tween 20 at room temperature. Then the membrane was rinsed once with PBS buffer to remove residual Tween 20. The membrane was kept in PBS buffer at 4° C. and then scanned with the Odyssey instrument. Fluorescence signals were recorded and analysed according to the instructions of the manufacturer.

The next test deals with T3, PI3 Kbeta (PI3 Kb) (Homo sapiens, UniProt P42338).
T3 construct: endogenous in cells; host or cells: cell lysate
Description: kinobeads assay, PI3Kbeta. The format is binding. As for the experimental part: as §2
(§8) The effect of the compounds on the kinases PI3Kalpha (PI3Ka), PI3 Kbeta (PI3 Kb) and PI3 Kgamma (PI3 Kg) were tested in the kinobeads assay as described (WO-A 2009/098021).

The next test has as its target T4, PI3K delta (PI3 Kd) (Homo sapiens, UniProt O00329).
T4 construct: endogenous in cells; host or cells: Jurkat, clone E6-1 (ATCC TIB-152) cell lysate
Briefly: kinobeads assay, PI3K delta. The format is binding. The protocol: as §1, §2, §3, §4, §5, §6, §7

A further test concerns the target T5, PI3 Kgamma (PI3 Kg) (Homo sapiens, UniProt P48736).
T5 construct: endogenous in cells; host or cells: cell lysate
Description: kinobeads assay, PI3Kgamma. The format is binding. The protocol:
as §2, §8

In another test the target is T6, PI3Kalpha (PI3Ka) (Homo sapiens, UniProt P42336).
T6 construct: endogenous in cells; host or cells: cell lysate
Description: kinobeads assay, PI3Kalpha. The format is binding. As for the experimental part: as §2, §8

The mark [2] stands for this setting: Further Kinobeads Data, read-out: DNAPK.
[3] abbreviates: Further Kinobeads Data, read-out: mTor.
Setting [4] is: Further Kinobeads Data, read-out: PI3Kb.
Where [5] appears, read: Further Kinobeads Data, read-out: PI3Kd.
[6] abbreviates: Further Kinobeads Data, read-out: PI3Kg.
Where [7] appears, read: Further Kinobeads Data, read-out: PI3Ka.
[8] abbreviates: kinobeads assay, Table 6, read-out: Inhibition values (IC50) DNAPK.
Setting [9] is: kinobeads assay, Table 6, read-out: Inhibition values (IC50) mTOR.
The mark [10] stands for this setting: kinobeads assay, Table 6, read-out: Inhibition values (IC50) PI3Kb.
The mark [11] stands for this setting: kinobeads assay, Table 6, read-out: Inhibition values (IC50) PI3Kd.
Where [12] appears, read: kinobeads assay, Table 6, read-out: Inhibition values (IC50) PI3Kg.

Each structure is given as a SMILES string. pIC50: −log10 of the molar value. Where a name gives a salt, the structure may show the parent alone. Read-outs that look alike come from different tables or passages of the source. Some results are limits rather than exact numbers.

T6 sequence (P42336 whole entry): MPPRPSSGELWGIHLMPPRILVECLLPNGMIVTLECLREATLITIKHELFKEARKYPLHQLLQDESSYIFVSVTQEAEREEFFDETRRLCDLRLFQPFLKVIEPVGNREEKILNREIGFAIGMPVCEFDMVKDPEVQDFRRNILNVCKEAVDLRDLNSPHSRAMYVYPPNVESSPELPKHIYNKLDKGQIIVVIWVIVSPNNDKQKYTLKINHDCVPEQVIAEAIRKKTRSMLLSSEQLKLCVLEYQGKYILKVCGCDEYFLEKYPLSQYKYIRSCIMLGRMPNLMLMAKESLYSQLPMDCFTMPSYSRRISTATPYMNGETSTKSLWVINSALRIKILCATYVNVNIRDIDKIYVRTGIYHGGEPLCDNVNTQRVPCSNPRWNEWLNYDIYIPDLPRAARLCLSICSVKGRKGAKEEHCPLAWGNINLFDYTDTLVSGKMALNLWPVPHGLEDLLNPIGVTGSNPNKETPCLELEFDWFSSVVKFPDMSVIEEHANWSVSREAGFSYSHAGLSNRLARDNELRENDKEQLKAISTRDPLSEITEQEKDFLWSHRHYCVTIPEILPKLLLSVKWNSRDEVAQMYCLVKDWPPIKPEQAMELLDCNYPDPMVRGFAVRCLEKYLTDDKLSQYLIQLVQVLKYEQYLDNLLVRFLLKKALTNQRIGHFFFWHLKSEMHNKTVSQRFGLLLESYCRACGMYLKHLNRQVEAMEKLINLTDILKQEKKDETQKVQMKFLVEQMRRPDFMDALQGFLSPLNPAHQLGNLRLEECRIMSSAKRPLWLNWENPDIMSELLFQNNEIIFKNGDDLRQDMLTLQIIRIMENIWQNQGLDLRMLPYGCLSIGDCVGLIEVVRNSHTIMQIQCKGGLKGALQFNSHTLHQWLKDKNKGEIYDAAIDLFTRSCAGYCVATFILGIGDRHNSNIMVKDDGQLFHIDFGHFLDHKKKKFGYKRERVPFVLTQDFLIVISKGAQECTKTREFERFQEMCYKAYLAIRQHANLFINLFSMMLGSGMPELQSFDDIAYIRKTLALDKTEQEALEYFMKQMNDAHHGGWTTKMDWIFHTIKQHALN
T6 sequence (P27986 whole entry partner): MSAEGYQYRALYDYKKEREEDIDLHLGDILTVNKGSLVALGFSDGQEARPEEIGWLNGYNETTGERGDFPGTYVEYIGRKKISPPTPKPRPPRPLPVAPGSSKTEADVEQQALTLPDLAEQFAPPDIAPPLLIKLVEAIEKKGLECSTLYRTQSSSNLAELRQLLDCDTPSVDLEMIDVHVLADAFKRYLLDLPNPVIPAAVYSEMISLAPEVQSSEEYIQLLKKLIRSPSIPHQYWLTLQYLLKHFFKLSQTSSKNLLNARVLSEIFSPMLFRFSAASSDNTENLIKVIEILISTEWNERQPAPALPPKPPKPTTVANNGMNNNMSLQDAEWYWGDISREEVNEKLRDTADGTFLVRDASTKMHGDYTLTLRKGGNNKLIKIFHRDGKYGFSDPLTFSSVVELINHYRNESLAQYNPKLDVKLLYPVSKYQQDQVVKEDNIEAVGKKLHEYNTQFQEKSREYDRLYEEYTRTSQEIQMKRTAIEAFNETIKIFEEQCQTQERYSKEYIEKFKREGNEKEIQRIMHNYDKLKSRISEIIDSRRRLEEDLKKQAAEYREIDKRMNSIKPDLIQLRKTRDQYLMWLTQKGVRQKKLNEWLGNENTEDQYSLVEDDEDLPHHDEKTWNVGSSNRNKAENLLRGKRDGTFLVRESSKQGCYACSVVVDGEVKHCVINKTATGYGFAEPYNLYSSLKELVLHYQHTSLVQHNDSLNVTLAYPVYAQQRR
T5 sequence (P48736 whole entry): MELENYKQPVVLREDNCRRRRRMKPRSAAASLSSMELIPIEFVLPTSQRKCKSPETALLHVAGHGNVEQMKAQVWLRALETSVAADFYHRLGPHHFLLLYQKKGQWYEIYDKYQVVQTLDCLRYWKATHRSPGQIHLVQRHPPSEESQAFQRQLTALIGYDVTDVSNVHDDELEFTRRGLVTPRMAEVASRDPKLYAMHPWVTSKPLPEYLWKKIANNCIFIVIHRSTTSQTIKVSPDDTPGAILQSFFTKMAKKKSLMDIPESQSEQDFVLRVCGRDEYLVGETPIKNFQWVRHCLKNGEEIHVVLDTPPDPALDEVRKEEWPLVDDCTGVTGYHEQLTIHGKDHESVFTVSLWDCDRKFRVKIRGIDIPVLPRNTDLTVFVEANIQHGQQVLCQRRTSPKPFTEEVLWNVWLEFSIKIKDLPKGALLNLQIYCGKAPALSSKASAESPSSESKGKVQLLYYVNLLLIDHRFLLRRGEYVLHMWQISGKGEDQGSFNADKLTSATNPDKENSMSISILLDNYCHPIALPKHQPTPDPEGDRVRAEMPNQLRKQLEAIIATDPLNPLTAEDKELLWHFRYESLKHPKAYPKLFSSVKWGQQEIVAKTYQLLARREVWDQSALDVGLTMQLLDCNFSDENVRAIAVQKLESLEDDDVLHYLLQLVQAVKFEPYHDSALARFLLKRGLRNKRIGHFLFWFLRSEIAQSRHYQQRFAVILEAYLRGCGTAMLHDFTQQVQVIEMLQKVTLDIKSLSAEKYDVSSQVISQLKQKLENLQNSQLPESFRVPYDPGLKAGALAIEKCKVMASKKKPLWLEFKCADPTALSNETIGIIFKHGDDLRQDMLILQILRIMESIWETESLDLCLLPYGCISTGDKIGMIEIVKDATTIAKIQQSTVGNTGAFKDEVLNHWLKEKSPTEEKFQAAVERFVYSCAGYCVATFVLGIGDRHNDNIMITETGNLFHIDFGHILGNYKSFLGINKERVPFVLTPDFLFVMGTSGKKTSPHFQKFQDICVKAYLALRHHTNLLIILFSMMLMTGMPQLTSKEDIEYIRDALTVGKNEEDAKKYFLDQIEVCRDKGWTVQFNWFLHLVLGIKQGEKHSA
T3 sequence (P42338 whole entry): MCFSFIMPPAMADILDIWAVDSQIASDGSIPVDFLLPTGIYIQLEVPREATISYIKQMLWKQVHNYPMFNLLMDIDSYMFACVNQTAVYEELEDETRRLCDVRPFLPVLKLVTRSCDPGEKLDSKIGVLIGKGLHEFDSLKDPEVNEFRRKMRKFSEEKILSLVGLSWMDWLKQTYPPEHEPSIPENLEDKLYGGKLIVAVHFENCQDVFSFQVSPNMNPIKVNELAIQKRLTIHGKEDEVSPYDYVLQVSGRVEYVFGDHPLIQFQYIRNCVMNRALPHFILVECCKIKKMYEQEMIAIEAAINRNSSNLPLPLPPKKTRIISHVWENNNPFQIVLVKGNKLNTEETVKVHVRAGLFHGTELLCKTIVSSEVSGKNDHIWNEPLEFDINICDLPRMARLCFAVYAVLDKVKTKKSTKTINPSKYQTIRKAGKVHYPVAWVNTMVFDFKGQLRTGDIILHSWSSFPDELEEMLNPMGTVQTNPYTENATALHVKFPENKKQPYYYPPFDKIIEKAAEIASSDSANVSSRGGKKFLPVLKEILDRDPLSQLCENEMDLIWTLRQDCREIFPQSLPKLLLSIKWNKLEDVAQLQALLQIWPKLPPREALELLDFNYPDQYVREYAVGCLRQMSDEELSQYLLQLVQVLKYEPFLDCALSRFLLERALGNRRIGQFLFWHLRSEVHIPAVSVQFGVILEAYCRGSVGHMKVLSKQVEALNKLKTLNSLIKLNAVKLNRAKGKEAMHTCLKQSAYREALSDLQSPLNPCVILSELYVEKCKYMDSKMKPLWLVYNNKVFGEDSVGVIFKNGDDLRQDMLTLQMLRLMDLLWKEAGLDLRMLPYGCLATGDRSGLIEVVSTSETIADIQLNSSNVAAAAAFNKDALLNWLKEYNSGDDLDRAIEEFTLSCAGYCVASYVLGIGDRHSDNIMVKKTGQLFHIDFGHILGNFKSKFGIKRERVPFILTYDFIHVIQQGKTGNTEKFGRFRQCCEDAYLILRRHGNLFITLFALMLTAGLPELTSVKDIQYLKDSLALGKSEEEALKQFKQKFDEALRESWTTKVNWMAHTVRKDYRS
T3 sequence (P27986 whole entry partner): as the sequence (P27986 whole entry partner) above
T4 sequence (O00329 whole entry): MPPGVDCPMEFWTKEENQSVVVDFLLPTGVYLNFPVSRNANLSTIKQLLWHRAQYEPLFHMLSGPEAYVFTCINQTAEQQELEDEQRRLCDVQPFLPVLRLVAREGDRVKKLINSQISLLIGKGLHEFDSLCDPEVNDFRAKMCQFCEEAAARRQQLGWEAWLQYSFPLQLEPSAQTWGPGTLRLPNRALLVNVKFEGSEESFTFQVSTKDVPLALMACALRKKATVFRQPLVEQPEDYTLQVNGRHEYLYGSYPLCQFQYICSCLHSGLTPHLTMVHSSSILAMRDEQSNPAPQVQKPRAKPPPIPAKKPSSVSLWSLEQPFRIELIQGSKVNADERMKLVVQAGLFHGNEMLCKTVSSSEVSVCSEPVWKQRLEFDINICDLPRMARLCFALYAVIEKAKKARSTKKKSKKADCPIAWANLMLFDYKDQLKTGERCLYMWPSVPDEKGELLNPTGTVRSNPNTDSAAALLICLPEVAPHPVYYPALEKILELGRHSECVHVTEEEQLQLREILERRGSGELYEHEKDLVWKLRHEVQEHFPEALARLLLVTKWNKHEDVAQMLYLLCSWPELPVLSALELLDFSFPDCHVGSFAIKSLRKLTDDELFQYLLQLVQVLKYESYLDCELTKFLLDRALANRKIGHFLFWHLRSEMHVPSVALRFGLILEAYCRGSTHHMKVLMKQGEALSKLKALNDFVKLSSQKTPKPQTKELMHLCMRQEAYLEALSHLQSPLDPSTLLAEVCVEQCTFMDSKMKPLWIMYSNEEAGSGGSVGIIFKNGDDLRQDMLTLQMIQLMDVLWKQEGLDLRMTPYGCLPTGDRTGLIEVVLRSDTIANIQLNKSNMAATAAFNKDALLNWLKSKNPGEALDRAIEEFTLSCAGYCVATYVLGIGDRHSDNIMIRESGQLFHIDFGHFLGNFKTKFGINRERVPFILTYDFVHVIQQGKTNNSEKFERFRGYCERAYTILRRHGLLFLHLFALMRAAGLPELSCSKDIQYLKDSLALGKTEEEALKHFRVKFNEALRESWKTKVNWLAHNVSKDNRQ
T4 sequence (P27986 whole entry partner): as the sequence (P27986 whole entry partner) above

With `CCNC(=O)Nc1ccc(-c2nc3c(c(N4CCOCC4)n2)CN(C(=O)OC(C)(C)C)C3)c(F)c1` [Example 145, tert-butyl 2-(4-(3-ethylureido)-2-fluorophenyl)-4-morpholino-5H-pyrrolo[3,4-d]pyrimidine-6(7H)-carboxylate], the pIC50 in test [1] (setting [2]) is less than 5.00; at mTOR (setting [3]), 6.00 to 7.00; on PI3 Kbeta (PI3 Kb) (setting [4]) it was less than 5.00; on PI3K delta (PI3 Kd) (setting [5]), less than 5.00; on PI3 Kgamma (PI3 Kg) (setting [6]), less than 5.00. On PI3Kalpha (PI3Ka) (Further Kinobeads Data), the PI3Ka result was “D (D >10 μM)”.
For the molecule `C[C@@H]1COCCN1c1nc(-c2ccc(NC(=O)NC3CC3)cc2F)nc2c1CN(C(=O)OC(C)(C)C)C2` [Example 182, (R)-tert-butyl 2-(4-(3-cyclopropylureido)-2-fluorophenyl)-4-(3-methylmorpholino)-5H-pyrrolo[3,4-d]pyrimidine-6(7H)-carboxylate], the pIC50 was 5.00 to 6.00 in test [1] (setting [2]); greater than 7.00 on mTOR (setting [3]); less than 5.00 on PI3 Kbeta (PI3 Kb) (setting [4]); 5.00 to 6.00 on PI3K delta (PI3 Kd) (setting [5]); less than 5.00 on PI3 Kgamma (PI3 Kg) (setting [6]); 5.00 to 6.00 at PI3Kalpha (PI3Ka) (setting [7]).
As to `CCNC(=O)Nc1cc(F)c(-c2nc3c(c(N4CCOC[C@@H]4C)n2)CN(C(=O)OCC)C3)c(F)c1` [Example 142, (S)-ethyl 2-(4-(3-ethylureido)-2,6-difluorophenyl)-4-(3-methylmorpholino)-5H-pyrrolo[3,4-d]pyrimidine-6(7H)-carboxylate], the pIC50 (in test [1] (setting [2]); on mTOR (setting [3]); on PI3 Kbeta (PI3 Kb) (setting [4]); at PI3K delta (PI3 Kd) (setting [5]); on PI3 Kgamma (PI3 Kg) (setting [6])) was less than 5.00 throughout. At PI3Kalpha (PI3Ka) (Further Kinobeads Data), the PI3Ka entry was “D (D >10 μM)”.
On to `CCOC(=O)N1Cc2nc(-c3ccc(NC(=O)NCCNC(C)=O)cc3)nc(N3CCOC[C@@H]3C)c2C1` [Example 124, (S)-ethyl 2-(4-(3-(2-acetamidoethyl)ureido)phenyl)-4-(3-methylmorpholino)-5H-pyrrolo[3,4-d]pyrimidine-6(7H)-carboxylate], for which the pIC50 is less than 5.00 in test [1] (setting [8]); 6.00 to 7.00 on mTOR (setting [9]); less than 5.00 on PI3 Kbeta (PI3 Kb) (setting [10]); 5.00 to 6.00 at PI3K delta (PI3 Kd) (setting [11]); less than 5.00 at PI3 Kgamma (PI3 Kg) (setting [12]); 5.00 to 6.00 on PI3Kalpha (PI3Ka) (kinobeads assay, Table 6, read-out: Inhibition values (IC50) PI3Ka).
Take `CC(=O)N1Cc2nc(-c3ccc(NC(=O)NC4CC4)cc3F)nc(N3CCOCC3)c2C1` [Example 166, 1-(4-(6-Acetyl-4-morpholino-6,7-dihydro-5H-pyrrolo[3,4-d]pyrimidin-2-yl)-3-fluorophenyl)-3-cyclopropylurea]: the pIC50 in test [1] (setting [2]) was less than 5.00; at mTOR (setting [3]) it was greater than 7.00; at PI3 Kbeta (PI3 Kb) (setting [4]), less than 5.00; at PI3K delta (PI3 Kd) (setting [5]) it was less than 5.00; at PI3 Kgamma (PI3 Kg) (setting [6]), less than 5.00. At PI3Kalpha (PI3Ka) (Further Kinobeads Data), the PI3Ka result is listed as “D (D >10 μM)”.
On to `CCOC(=O)N1Cc2nc(-c3ccc(NC(=O)Nc4ccc(CO)cc4)cc3)nc(N3CCOC[C@@H]3C)c2C1` [Example 119, (S)-ethyl 2-(4-(3-(4-(hydroxymethyl)phenyl)ureido)phenyl)-4-(3-methylmorpholino)-5H-pyrrolo[3,4-d]pyrimidine-6(7H)-carboxylate], for which the pIC50 in test [1] (setting [8]) is less than 5.00; at mTOR (setting [9]), 6.00 to 7.00; on PI3 Kbeta (PI3 Kb) (setting [10]) it was less than 5.00; at PI3K delta (PI3 Kd) (setting [11]), less than 5.00; at PI3 Kgamma (PI3 Kg) (setting [12]), less than 5.00. The “Inhibition values (IC50) PI3Ka” value on PI3Kalpha (PI3Ka) (kinobeads assay, Table 6) was “D (D >10 μM)”.
Take `C[C@H]1COCCN1c1nc(-c2ccc(NC(=O)NC3CC3)cc2F)nc2c1CNC2` [Example 149, (S)-1-(Cyclopropyl)-3-(3-fluoro-4-(4-(3-methylmorpholino)-6,7-dihydro-5H-pyrrolo[3,4-d]pyrimidin-2-yl)phenyl)urea hydrochloride]: the pIC50 was less than 5.00 in test [1] (setting [2]); 6.00 to 7.00 on mTOR (setting [3]); less than 5.00 on PI3 Kbeta (PI3 Kb) (setting [4]); less than 5.00 on PI3K delta (PI3 Kd) (setting [5]); less than 5.00 on PI3 Kgamma (PI3 Kg) (setting [6]); 5.00 to 6.00 on PI3Kalpha (PI3Ka) (setting [7]).
With `CCNC(=O)Nc1ccc(-c2nc3c(c(N4CCOC[C@@H]4C)n2)CN(C(=O)C2CCN(C(C)=O)CC2)C3)cc1F` [Example 123, (S)-1-(4-(6-(1-acetylpiperidine-4-carbonyl)-4-(3-methylmorpholino)-6,7-dihydro-5H-pyrrolo[3,4-d]pyrimidin-2-yl)-2-fluorophenyl)-3-ethylurea], the pIC50 in test [1] (setting [8]) is less than 5.00; on mTOR (setting [9]) it was 6.00 to 7.00; at PI3 Kbeta (PI3 Kb) (setting [10]), less than 5.00; on PI3K delta (PI3 Kd) (setting [11]), less than 5.00; at PI3 Kgamma (PI3 Kg) (setting [12]), less than 5.00. Also, the “Inhibition values (IC50) PI3Ka” value at PI3Kalpha (PI3Ka) (kinobeads assay, Table 6) was “D (D >10 μM)”.

(Values after patent US8785457B2 (Cellzome Limited, priority 2009, dated 2014).)
